# Laboratory results from patent US20190351019A1, “STEROID ADMINISTRATION AND IMMUNOTHERAPY” (Intrexon Corporation, priority 2016, published 2019).
# Assay: Infusion of CAR-T cells followed by prednisone in a B-ALL patient: GVHD course and blood counts (case report)
# Format: in vivo, human
# Conditions: about 1 mg/kg starting day 14; on day 18 (or Day 48 since administration of CAR-T cells); dose then reduced to about 0.5 mg/kg
# Protocol: A person was diagnosed with B-cell acute lymphoblastic leukemia (B-ALL). […] Multiple salvage therapies were given. POMP maintenance therapy was subsequently started. The patient further developed graft-versus-host disease GVHD and was treated with prednisone and tacrolimus. Additional radiation therapy (XRT), immunotherapy, hyperCAVD and O-EPOCH were further administered to the patient. Further, lymphodepletion was induced in the patient with cyclophosphamide at 500 mg/m^2 and fludarabine at 30 mg/m^2 for 3 days. Following lymphodepletion, 10^6 CAR-T cells/kg were infused into the patient on day 0. […] About 1 mg/kg of prednisone was administered starting day 14. […] White blood cell count (WBC) was 2.7 and absolute lymphocyte count (ALC) was 200.
structure (smiles),measurement,value
C[C@]12C=CC(=O)C=C1CC[C@@H]1[C@@H]2C(=O)C[C@@]2(C)[C@H]1CC[C@]2(O)C(=O)CO [prednisone],outcome of GVHD under prednisone,GVHD was resolved
